Experimental findings from patent US10130619B2, “Amido thiadiazole derivatives as NADPH oxidase inhibitors” (GENKYOTEX SUISSE SA, priority 2014, dated 2018) are described below.

Sequence of hNOX1 (Q9Y5S8 whole entry): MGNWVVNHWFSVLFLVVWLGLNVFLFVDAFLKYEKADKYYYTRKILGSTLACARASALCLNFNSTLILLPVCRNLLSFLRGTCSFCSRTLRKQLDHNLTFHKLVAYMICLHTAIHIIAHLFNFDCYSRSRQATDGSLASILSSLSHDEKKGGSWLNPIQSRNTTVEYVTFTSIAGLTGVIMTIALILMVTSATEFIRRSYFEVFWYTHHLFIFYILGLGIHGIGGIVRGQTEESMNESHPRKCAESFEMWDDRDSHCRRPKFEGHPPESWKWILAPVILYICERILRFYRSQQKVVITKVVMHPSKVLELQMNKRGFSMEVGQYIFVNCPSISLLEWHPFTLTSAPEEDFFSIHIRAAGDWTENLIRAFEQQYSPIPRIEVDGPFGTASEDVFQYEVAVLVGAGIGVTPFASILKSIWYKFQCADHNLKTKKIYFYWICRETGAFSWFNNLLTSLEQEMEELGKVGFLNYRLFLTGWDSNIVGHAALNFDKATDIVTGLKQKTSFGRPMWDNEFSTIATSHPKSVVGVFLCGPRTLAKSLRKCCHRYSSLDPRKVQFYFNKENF
Sequence of hNOX1 (P13498 whole entry partner): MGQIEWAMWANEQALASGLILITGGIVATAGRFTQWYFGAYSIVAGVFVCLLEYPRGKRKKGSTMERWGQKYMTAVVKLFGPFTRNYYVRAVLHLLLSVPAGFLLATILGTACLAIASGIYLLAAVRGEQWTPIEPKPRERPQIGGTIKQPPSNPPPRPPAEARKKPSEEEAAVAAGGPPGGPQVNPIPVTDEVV

This assay addresses hNOX1 (Homo sapiens (Human), UniProt Q9Y5S8). Description: ROS production measurement on hNOX1 membranes (Amplex Red fluorescence assay, assay 1). The settings on record: assay 1: membranes from CHO cells overexpressing hNox1, Amplex Red/HRP fluorescence, NADPH 30 μM; non linear regression (GraphPad Prism); read-out: Nox1 inhibitory constant Ki. The class given is biochemical. The method, then:
Reactive oxygen species (ROS) production generated by hNOX1 enzyme was measured by fluorescence in both cellular and membrane-based assays using the Amplex® Red reagent. In the presence of horseradish peroxidase (HRP), the Amplex® Red reagent (10-acetyl-3,7-dihydroxyphenoxazine, AR), which is a colorless and nonfluorescent derivative of dihydroresorufin, reacts with H2O2 with a 1:1 stoichiometry to produce highly fluorescent resorufin at an excitation and emission wavelengths of 544 nm and 590 nm, respectively.
After resuspension in sonication buffer (11% sucrose, 120 mM NaCl, 1 mM EGTA in PBS, pH 7.4), cells were broken by sonication and centrifuged (200 g, 10 min). The supernatant was layered onto a 17/40% (w/v) discontinuous sucrose gradient and centrifuged (150,000 g for 30 min). Membrane fractions were collected from the 17/40% interface, aliquoted in 10 μl samples and were stored at −80° C. Protein concentration was determined with Bradford reagent. Flavin Adenine Dinucleotide (FAD) (catalog # F6625-500MG), MgCl2 (catalog # M8266-100G), Phosphatidic Acid (PA) (catalog # P3591-50MG) were purchased from Sigma-Aldrich. […] NADPH (catalog #A1395, 0500) was purchased from Applichem. Amplex red (AR) (catalog # A22177) was purchased from Invitrogen. […] FLUOstar OPTIMA microplate reader was supplied by BMG Labtech (Germany). Zephyr® Compact Liquid Handling Workstation was supplied by PerkinElmer (Germany).
Assay 1: ROS Production Measurement on hNOX1 Membranes
All solutions were placed on ice and protected from light.
The NADPH was dissolved in water at a concentration of 12 mM and was transferred in a metal transfer plate kept at 4° C. The NADPH was added to the assay plate to initiate the reaction just before the measurement.
Serial dilution (1:3, 10 serial dilution) of the compounds was performed in 100% DMSO in 96 well polypropylene plate—Row B-H […], Row A, Column 1-10 contained reference compound. Starting concentration was 10^−2 M (10 mM). Final concentration in assay was 10^−4 M (100 μM). Compounds were diluted twice in PBS buffer by transferring 30 μl/well of PBS into 30 μl/well compounds sample in DMSO using Zephyr® Compact Liquid Handling Workstation. Control wells-columns 1 and 12-contained 60 μl DMSO in 50% PBS pH7.
Reaction mixture is dispensed using Zephyr® Compact Liquid Handling Workstation. 90 μl of mix with membrane were dispensed into 96 well black plates—Column 2-11, Column 1 Row A-D, Column 12 Row E-H. 90 μl of control mix were dispensed into assay plate—Column 1 Row E-H, Column 12 Row A-D, which are wells for measuring background signal. 2 μl of compounds were dispensed into each well of assay plate using Zephyr® Compact Liquid Handling Workstation. The reaction mixture with compounds was incubated in assay plates for 20 min at 37° C. in a Titramax microplate incubator with gentle agitation. 10 μl of NADPH is dispensed to the assay plate. Fluorescence reading was recorded with the FLUOstar OPTIMA microplate reader for 10 min at 37° C. (8 cycles, 1 cycle duration 55 sec).
Turning to `COc1cc(C(=O)Nc2nnc(-c3ccncc3)s2)ccc1CN(C)c1ccccn1` [(120)], the inhibition constant (Ki) (as a rule, the equilibrium dissociation constant of an inhibitor or competing ligand from its target) worked out at 0.093 µM.

As to `COc1cc(C(=O)Nc2nnc(-c3ccncc3)s2)ccc1OCCc1ccccc1` [(161)], the Ki is 0.079 µM.

As for `COc1cc(C(=O)Nc2nnc(-c3ccncn3)s2)cnc1O[C@@H](CN(C)C)c1ccccc1` [(114)], the Ki is 0.037 µM.

In the case of `C[C@H](COc1ccc(C(=O)Nc2nnc(-c3ccncc3)s2)cn1)c1ccccc1` [(178)], the inhibitory constant (Ki) turned out to be 0.085 µM.

Take `C[C@H](Oc1ncc(C(=O)Nc2nnc(-c3ccncc3)s2)cc1N1CCN(C)CC1)c1ccccc1` [(69)]: the Ki amounted to 0.055 µM.

On to `C[C@H](Oc1ncc(C(=O)Nc2nnc(-c3ccncc3)s2)cc1NCC1CCN(C)CC1)c1ccccc1` [(53)], for which the Ki worked out at 0.019 µM.

Consider `COc1cc(C(=O)Nc2nnc(-c3ccncc3)s2)ccc1OCc1ccc(F)cc1` [(96)], for which the Ki turned out to be 0.014 µM.

As for `O=C(Nc1nnc(-c2ccncc2)s1)c1ccc(O[C@@H](CN2CCC(F)(F)C2)c2ccccc2)nc1` [(187)], the Ki is 0.055 µM.

As to `COc1cc(C(=O)Nc2nnc(-c3ccncc3)s2)ccc1O[C@@H](CO)c1ccc(F)cc1` [(197)], the Ki came out at 0.024 µM.

As to `C[C@H](Nc1ccc(C(=O)Nc2nnc(-c3ccncc3)s2)cn1)c1ccccc1` [(149)], the Ki was 0.078 µM.

Take `O=C(Nc1nnc(-c2ccncc2)s1)c1ccc(O[C@@H](CN2CCOCC2)c2ccccc2)nc1` [Example 39, (R)-6-(2-morpholino-1-phenylethoxy)-N-(5-(pyridin-4-yl)-1,3,4-thiadiazol-2-yl)nicotinamide]: the Ki was found to be 0.1 µM.

For `COc1cc(C(=O)Nc2nnc(-c3ccncc3)s2)ccc1O[C@H](CN1CCOCC1)c1ccccc1` [(185)], the Ki amounted to 0.089 µM.

Consider `COCCNc1cc(C(=O)Nc2nnc(-c3ccncc3)s2)cnc1O[C@@H](C)c1ccccc1` [Example 22, (S)-5-((2-methoxyethyl)amino)-6-(1-phenylethoxy)-N-(5-(pyridin-4-yl)-1,3,4-thiadiazol-2-yl)nicotinamide], for which the Ki was 0.018 µM.

Take `Cc1cc(C(=O)Nc2nnc(-c3ccncc3)s2)cnc1O[C@@H](CN1CCOCC1)c1ccccc1` [(182)]: the inhibition constant (Ki) was 0.037 µM.

On to `C[C@H](Oc1ncc(C(=O)Nc2nnc(-c3ccncc3)s2)cc1NCCCN(C)C)c1ccccc1` [(63)], for which the Ki turned out to be 0.031 µM.

For `COc1cc(C(=O)Nc2nnc(-c3ccncc3)s2)ccc1OCc1ccn(C)n1` [(162)], the Ki stood at 0.095 µM.

For `COc1cc(C(=O)Nc2nnc(-c3ccncc3)s2)cnc1O[C@@H](C)c1ccccn1` [(46)], the Ki was 0.035 µM.

For `C[C@H](Oc1ncc(C(=O)Nc2nnc(-c3ccncc3)s2)cc1NCC1CCOCC1)c1ccccc1` [(52)], the Ki was determined as 0.018 µM.

For the compound `COc1cc(C(=O)Nc2nnc(-c3ccncc3)s2)ccc1O[C@@H](CCN1CCCC1)c1ccccc1` [Example 9, (S)-3-methoxy-4-(1-phenyl-3-(pyrrolidin-1-yl)propoxy)-N-(5-(pyridin-4-yl)-1,3,4-thiadiazol-2-yl)benzamide], the Ki is 0.029 µM.
